Holding throughout (format): biochemical
Assay [1] deals with T1, NMDAR2A expressing HEK cell membranes (Homo sapiens, UniProt Q05586+Q12879).
T1 construct: expressed in transfected cells; host or cells: HEK cells (membrane extract)
Put plainly: NMDAR agonist assay, [3H]MK-801 binding, NMDAR2A. Details: key to NMDAR2A B: log EC50: 0=−; ≥1×10^−9 M (e.g., −8)=+; <1×10^−9 M (e.g., −10)=++. The settings on record: 50 μM glutamate; for EC50: read-out: NMDAR2A B: log EC50 (converted); for Emax: 0.25 h, read-out: NMDAR2A A: % maximal [3H]MK-801 binding relative to 1 mM glycine. On the procedure: (§1) Assays were conducted as described by Moskal et al., “GLYX-13: a monoclonal antibody-derived peptide that acts as an N-methyl-D-aspartate receptor modulator,” Neuropharmacology, 49, 1077-87, 2005. These studies were designed to determine if the test compounds act to facilitate NMDAR activation in NMDAR2A, NMDAR2B, NMDAR2C or NMDAR2D expressing HEK cell membranes as measured by increases in [^3H]MK-801 binding.
(§2) In the assay, 300 μg of NMDAR expressing HEK cell membrane extract protein was preincubated for 15 minutes at 25° C. in the presence of saturating concentrations of glutamate (50 μM) and varying concentrations of test compound (1×10^−15 M-1×10^−7 M), or 1 mM glycine. Following the addition of 0.3 μCi of [^3H]MK-801 (22.5 Ci/mmol), reactions were again incubated for 15 minutes at 25° C. (nonequilibrium conditions). Bound and free [^3H]MK-801 were separated via rapid filtration using a Brandel apparatus.
(§3) In analyzing the data, the DPM (disintegrations per minute) of [^3H]MK-801 remaining on the filter were measured for each concentration of test compound or for 1 mM glycine. The DPM values for each concentration of a ligand (N=2) were averaged. The baseline value was determined from the best fit curve of the DPM values modeled using the GraphPad program and the log(agonist) vs. response(three parameters) algorithm was then subtracted from all points in the dataset. The % maximal [^3H]MK-801 binding was then calculated relative to that of 1 mM glycine: all baseline subtracted DPM values were divided by the average value for 1 mM glycine. The EC50 and % maximal activity were then obtained from the best fit curve of the % maximal [^3H]MK-801 binding data modelled using the GraphPad program and the log(agonist) vs. response(three parameters) algorithm.
(§4) The tables below summarize the results for the wild type NMDAR agonists NMDAR2A, NMDAR2B, NMDAR2C, and NMDAR2D, and whether the compound is not an agonist (−), is an agonist (+), or is a strong agonist (++), where column A is based on the % maximal [^3H]MK-801 binding relative to 1 mM glycine (−=0; <100%=+; and >100%=++); and column B is based on log EC50 values (0=−; ≥1×10^−9 M (e.g., −8)=+; and <1×10^−9 M (e.g., −10)=++).

Assay [2] addresses T2, NMDAR2A expressing HEK cell membranes (Homo sapiens, UniProt Q12879).
T2 construct: expressed in transfected cells; host or cells: HEK cells (membrane extract)
Put plainly: NMDAR agonist assay, [3H]MK-801 binding, NMDAR2A. The settings on record: 50 μM glutamate; for EC50: read-out: NMDAR2A B: log EC50 (converted). Details: key to NMDAR2A B: log EC50: 0=−; ≥1×10^−9 M (e.g., −8)=+; <1×10^−9 M (e.g., −10)=++. On the procedure:
as §1, §2, §3, §4

The target in assay [3] is T3, NMDAR2B expressing HEK cell membranes (Homo sapiens, UniProt Q13224).
T3 construct: expressed in transfected cells; host or cells: HEK cells (membrane extract)
T3 sequence (Q13224 27-1484, other chains not shown): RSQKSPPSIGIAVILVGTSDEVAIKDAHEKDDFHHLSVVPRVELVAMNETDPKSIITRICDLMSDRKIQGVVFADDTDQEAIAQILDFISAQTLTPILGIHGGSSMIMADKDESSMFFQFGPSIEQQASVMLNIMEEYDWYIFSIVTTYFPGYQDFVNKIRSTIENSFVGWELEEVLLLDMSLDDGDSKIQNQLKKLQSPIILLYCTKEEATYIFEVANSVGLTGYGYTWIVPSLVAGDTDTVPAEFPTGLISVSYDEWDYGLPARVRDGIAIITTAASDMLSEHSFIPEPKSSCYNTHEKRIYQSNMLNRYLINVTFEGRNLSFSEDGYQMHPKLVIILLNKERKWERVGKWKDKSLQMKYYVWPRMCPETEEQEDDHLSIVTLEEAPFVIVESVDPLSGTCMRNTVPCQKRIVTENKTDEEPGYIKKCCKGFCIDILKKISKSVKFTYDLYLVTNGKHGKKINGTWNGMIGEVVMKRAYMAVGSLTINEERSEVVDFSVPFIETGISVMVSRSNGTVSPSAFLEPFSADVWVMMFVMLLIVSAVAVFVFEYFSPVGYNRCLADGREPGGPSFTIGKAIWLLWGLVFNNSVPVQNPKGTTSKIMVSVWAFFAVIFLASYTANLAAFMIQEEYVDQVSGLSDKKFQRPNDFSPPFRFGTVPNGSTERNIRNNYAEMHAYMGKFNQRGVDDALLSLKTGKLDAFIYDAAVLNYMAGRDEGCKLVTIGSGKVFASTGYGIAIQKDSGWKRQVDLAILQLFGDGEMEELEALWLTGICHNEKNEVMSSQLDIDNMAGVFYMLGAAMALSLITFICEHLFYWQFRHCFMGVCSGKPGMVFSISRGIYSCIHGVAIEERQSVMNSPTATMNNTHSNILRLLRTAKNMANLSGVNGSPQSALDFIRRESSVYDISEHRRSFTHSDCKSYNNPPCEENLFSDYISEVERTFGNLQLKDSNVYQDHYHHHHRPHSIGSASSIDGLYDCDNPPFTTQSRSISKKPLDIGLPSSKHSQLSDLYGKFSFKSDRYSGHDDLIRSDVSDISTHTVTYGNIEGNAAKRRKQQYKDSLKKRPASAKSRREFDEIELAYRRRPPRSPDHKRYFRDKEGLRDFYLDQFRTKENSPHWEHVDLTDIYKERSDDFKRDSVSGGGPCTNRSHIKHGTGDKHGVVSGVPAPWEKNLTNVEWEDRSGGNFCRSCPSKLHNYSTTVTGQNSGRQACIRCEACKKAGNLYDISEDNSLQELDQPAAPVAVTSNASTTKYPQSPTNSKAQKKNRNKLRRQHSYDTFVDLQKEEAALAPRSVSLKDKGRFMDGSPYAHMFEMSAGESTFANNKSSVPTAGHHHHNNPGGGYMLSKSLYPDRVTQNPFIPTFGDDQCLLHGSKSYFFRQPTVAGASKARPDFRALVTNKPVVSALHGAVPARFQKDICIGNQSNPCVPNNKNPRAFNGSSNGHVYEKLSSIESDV
Put plainly: NMDAR agonist assay, [3H]MK-801 binding, NMDAR2B. Details: key to NMDAR2B B: log EC50: 0=−; ≥1×10^−9 M (e.g., −8)=+; <1×10^−9 M (e.g., −10)=++. The note with it: 50 μM glutamate; for EC50: read-out: NMDAR2B B: log EC50 (converted). On the procedure:
as §1, §2, §3, §4

For assay [4], the target named is T4, NMDAR2B expressing HEK cell membranes (Homo sapiens, UniProt Q05586+Q13224).
T4 construct: expressed in transfected cells; host or cells: HEK cells (membrane extract)
T4 sequence (Q13224 27-1484, other chains not shown): as above
Put plainly: NMDAR agonist assay, [3H]MK-801 binding, NMDAR2B. Details: key to NMDAR2B B: log EC50: 0=−; ≥1×10^−9 M (e.g., −8)=+; <1×10^−9 M (e.g., −10)=++. The note with it: 50 μM glutamate; for Emax: 0.25 h, read-out: NMDAR2B A: % maximal [3H]MK-801 binding relative to 1 mM glycine; for EC50: read-out: NMDAR2B B: log EC50 (converted). On the procedure:
as §1, §2, §3, §4

SMILES strings stand for the structures.

T1 sequence (Q12879 23-1464, other chains not shown): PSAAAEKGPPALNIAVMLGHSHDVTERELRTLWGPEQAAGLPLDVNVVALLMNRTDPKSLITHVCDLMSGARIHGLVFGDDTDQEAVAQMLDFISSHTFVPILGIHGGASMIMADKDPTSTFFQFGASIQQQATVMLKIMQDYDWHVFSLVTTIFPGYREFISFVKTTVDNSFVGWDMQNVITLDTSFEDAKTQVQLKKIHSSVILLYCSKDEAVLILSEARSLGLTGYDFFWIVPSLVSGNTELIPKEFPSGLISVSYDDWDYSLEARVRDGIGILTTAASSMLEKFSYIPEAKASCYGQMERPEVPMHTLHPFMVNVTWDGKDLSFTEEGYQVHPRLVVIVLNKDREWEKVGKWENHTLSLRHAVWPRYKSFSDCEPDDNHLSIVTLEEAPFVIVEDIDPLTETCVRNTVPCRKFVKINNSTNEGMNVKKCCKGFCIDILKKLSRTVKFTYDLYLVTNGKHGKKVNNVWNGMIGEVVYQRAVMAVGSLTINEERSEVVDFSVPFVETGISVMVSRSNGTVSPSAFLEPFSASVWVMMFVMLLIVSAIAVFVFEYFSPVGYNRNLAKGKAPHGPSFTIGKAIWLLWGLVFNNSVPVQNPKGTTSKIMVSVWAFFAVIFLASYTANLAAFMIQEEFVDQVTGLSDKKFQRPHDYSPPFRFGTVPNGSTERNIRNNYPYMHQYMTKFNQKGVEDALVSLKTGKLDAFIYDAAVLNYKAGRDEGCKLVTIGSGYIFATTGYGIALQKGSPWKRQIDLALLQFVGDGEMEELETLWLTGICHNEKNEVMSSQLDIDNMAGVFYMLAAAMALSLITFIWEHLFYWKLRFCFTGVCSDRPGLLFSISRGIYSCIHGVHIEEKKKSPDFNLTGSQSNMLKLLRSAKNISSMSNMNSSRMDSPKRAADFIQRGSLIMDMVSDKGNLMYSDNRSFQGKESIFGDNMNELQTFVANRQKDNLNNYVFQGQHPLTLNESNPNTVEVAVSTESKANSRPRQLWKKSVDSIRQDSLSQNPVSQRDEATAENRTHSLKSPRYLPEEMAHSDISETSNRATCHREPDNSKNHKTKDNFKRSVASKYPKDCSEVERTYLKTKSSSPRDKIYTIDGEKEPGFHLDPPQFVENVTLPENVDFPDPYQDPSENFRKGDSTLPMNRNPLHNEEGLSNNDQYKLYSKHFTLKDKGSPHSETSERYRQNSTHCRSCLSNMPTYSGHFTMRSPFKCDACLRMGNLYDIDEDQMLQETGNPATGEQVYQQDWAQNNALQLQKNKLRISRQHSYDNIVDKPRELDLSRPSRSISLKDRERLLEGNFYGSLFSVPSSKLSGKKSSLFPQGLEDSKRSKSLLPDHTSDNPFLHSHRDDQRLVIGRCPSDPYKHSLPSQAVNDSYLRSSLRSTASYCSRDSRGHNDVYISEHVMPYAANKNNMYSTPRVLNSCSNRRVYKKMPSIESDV

Turning to `C[C@@H](O)[C@@H](C(=O)N(C)C)N1CC2(CCNC(=O)C2)C1=O` (single isomer, unassigned) [CD], the EC50 in assay [1] and in assay [3] was below 1 nM throughout. The “NMDAR2A A: % maximal [3H]MK-801 binding relative to 1 mM glycine” value in assay [2] was “+ (<100%=+)”. For the same molecule, in assay [3], the “NMDAR2B A: % maximal [3H]MK-801 binding relative to 1 mM glycine” value is given as “+ (<100%=+)”.
Regarding `COc1ccc(CN2CC3(CCN(C)C(=O)C3)C2=O)cc1` (single isomer, unassigned) [CJ, 2-(4-methoxybenzyl)-7-methyl-2,7-diazaspiro[3.5]nonane-1,6-dione], in assay [2], the “NMDAR2A A: % maximal [3H]MK-801 binding relative to 1 mM glycine” value is “+ (<100%=+)” and the EC50 was below 1 nM. In assay [3], the “NMDAR2B A: % maximal [3H]MK-801 binding relative to 1 mM glycine” value is reported as “++ (>100%=++)” and the EC50 is below 1 nM.
In the case of `COc1ccc(CN2CC3(CCNC(=S)C3)C2=O)cc1` (single isomer, unassigned) [CM, 2-(4-methoxybenzyl)-6-thioxo-2,7-diazaspiro[3.5]nonan-1-one], the Emax in assay [1] and in assay [4] was 0% throughout. The “NMDAR2A B: log EC50” value in assay [2] is reported as “−”. Besides, the “NMDAR2B B: log EC50” value in assay [3] is given as “−”.
Consider `COc1ccc(CN2CC3(CCNC(=S)C3)C2=S)cc1` (single isomer, unassigned) [CP, 2-(4-methoxybenzyl)-2,7-diazaspiro[3.5]nonane-1,6-dithione], for which, in assay [2], the “NMDAR2A A: % maximal [3H]MK-801 binding relative to 1 mM glycine” value is reported as “+ (<100%=+)” and the EC50 was below 1 nM. Besides, the EC50 in assay [4] was below 1 nM. The “NMDAR2B A: % maximal [3H]MK-801 binding relative to 1 mM glycine” value in assay [3] was “+ (<100%=+)”.
In the case of `COc1ccc(CN2CC3(CCN(CC(C)C)C(=O)C3)C2=O)cc1` (single isomer, unassigned) [CS, 7-isobutyl-2-(4-methoxybenzyl)-2,7-diazaspiro[3.5]nonane-1,6-dione], in assay [1], the EC50 is below 1 nM and the Emax was below 100%. In assay [4], the EC50 is below 1 nM. The “NMDAR2B A: % maximal [3H]MK-801 binding relative to 1 mM glycine” value in assay [3] is on record as “++ (>100%=++)”.
Take `COc1ccc(CN2CC3(CCN(CC(C)C)C(=O)C3)C2=O)cc1` (single isomer, unassigned) [CT, 7-isobutyl-2-(4-methoxybenzyl)-2,7-diazaspiro[3.5]nonane-1,6-dione]: in assay [2], the “NMDAR2A A: % maximal [3H]MK-801 binding relative to 1 mM glycine” value was “+ (<100%=+)” and the concentration giving a half-maximal response (EC50) was below 1 nM. In addition, in assay [3], the “NMDAR2B A: % maximal [3H]MK-801 binding relative to 1 mM glycine” value was “− (−=0)” and the “NMDAR2B B: log EC50” value is “−”.
For `O=C1CC2(CCN1)CN(Cc1ccccc1)C2=O` (single isomer, unassigned) [CV, 2-benzyl-2,7-diazaspiro[3.5]nonane-1,6-dione], the concentration for a half-maximal effect (EC50) in assay [1] and in assay [3] was below 1 nM each time. Besides, in assay [2], the “NMDAR2A A: % maximal [3H]MK-801 binding relative to 1 mM glycine” value was “+ (<100%=+)”. In assay [3], the “NMDAR2B A: % maximal [3H]MK-801 binding relative to 1 mM glycine” value is given as “+ (<100%=+)”.
For the molecule `CN1CCC2(CC1=O)CN(Cc1ccccc1)C2=O` (single isomer, unassigned) [CX, 2-benzyl-7-methyl-2,7-diazaspiro[3.5]nonane-1,6-dione], in assay [2], the “NMDAR2A A: % maximal [3H]MK-801 binding relative to 1 mM glycine” value is listed as “+ (<100%=+)” and the EC50 is below 1 nM. In assay [3], the “NMDAR2B A: % maximal [3H]MK-801 binding relative to 1 mM glycine” value was “+ (<100%=+)” and the EC50 was below 1 nM.
For the molecule `CCN1CCC2(CC1=O)CN(Cc1ccccc1)C2=O` (single isomer, unassigned) [CY, 2-benzyl-7-ethyl-2,7-diazaspiro[3.5]nonane-1,6-dione], in assay [1], the EC50 is below 1 nM and the Emax is below 100%. Further, in assay [4], the Emax amounted to 0%. Also, the “NMDAR2B B: log EC50” value in assay [3] was “−”.
Consider `CCN1CCC2(CC1=O)CN(Cc1ccccc1)C2=O` (single isomer, unassigned) [CZ, 2-benzyl-7-ethyl-2,7-diazaspiro[3.5]nonane-1,6-dione], for which, in assay [1], the concentration for a half-maximal effect (EC50) is at least 1 nM. Also, the “NMDAR2B B: log EC50” value in assay [3] is recorded as “−”.
`NC(=O)CN1CC2(CCNC(=O)C2)C1=O` (single isomer, unassigned) [DD, 2-(1,6-dioxo-2,7-diazaspiro[3.5]nonan-2-yl)acetamide]: in assay [2], the “NMDAR2A A: % maximal [3H]MK-801 binding relative to 1 mM glycine” value is “− (−=0)” and the “NMDAR2A B: log EC50” value is on record as “−”. In assay [3], the “NMDAR2B A: % maximal [3H]MK-801 binding relative to 1 mM glycine” value is reported as “+ (<100%=+)” and the concentration giving a half-maximal response (EC50) is below 1 nM.
Regarding `CC(C)CN1CC2(CCNC(=O)C2)C1=O` (single isomer, unassigned) [DF, 2-isobutyl-2,7-diazaspiro[3.5]nonane-1,6-dione], the 50% effective concentration (EC50) in assay [2] and in assay [3] was below 1 nM each time.
As for `CN1CC2(CCNC(=O)C2)C1=O` (single isomer, unassigned) [DG, 2-methyl-2,7-diazaspiro[3.5]nonane-1,6-dione], in assay [1], the half-maximal effective concentration (EC50) is below 1 nM and the Emax was below 100%. Also, in assay [3], the “NMDAR2B A: % maximal [3H]MK-801 binding relative to 1 mM glycine” value is “− (−=0)” and the “NMDAR2B B: log EC50” value was “−”.
As to `CN1CC2(CCNC(=O)C2)C1=O` (single isomer, unassigned) [DH, 2-methyl-2,7-diazaspiro[3.5]nonane-1,6-dione], in assay [2], the “NMDAR2A A: % maximal [3H]MK-801 binding relative to 1 mM glycine” value was “+ (<100%=+)” and the EC50 was below 1 nM. Further, the EC50 in assay [4] is below 1 nM. Also, the “NMDAR2B A: % maximal [3H]MK-801 binding relative to 1 mM glycine” value in assay [3] is “++ (>100%=++)”.
Take `CC1CC(=O)N(C)C12CN(CC(N)=O)C2=O` (single isomer, unassigned) [DJ, 2-(5,8-dimethyl-1,6-dioxo-2,5-diazaspiro[3.4]octan-2-yl)acetamide]: in assay [2], the “NMDAR2A A: % maximal [3H]MK-801 binding relative to 1 mM glycine” value was “− (−=0)” and the “NMDAR2A B: log EC50” value is listed as “−”. Further, in assay [3], the “NMDAR2B A: % maximal [3H]MK-801 binding relative to 1 mM glycine” value is on record as “+ (<100%=+)” and the EC50 is below 1 nM.
`CC1CC(=O)N(c2ccc(F)cc2)C12CN([C@H](C(N)=O)[C@@H](C)O)C2=O` (single isomer, unassigned) [DK]: in assay [1], the EC50 was at least 1 nM and the Emax is above 100%. Further, in assay [4], the Emax stood at 0%. Also, in assay [3], the “NMDAR2B B: log EC50” value is given as “−”.
In the case of `CC1CC(=O)N(c2ccc(F)cc2)C12CN([C@H](C(N)=O)[C@@H](C)O)C2=O` (single isomer, unassigned) [DL], the EC50 in assay [1] was below 1 nM. Besides, the “NMDAR2A A: % maximal [3H]MK-801 binding relative to 1 mM glycine” value in assay [2] is recorded as “+ (<100%=+)”. In assay [3], the “NMDAR2B A: % maximal [3H]MK-801 binding relative to 1 mM glycine” value is “− (−=0)” and the “NMDAR2B B: log EC50” value was “−”.
As to `CC1C(O)C(=O)N(C)C12CN(Cc1ccccc1)C2=O` (single isomer, unassigned) [DM, 2-benzyl-7-hydroxy-5,8-dimethyl-2,5-diazaspiro[3.4]octane-1,6-dione], in assay [1], the EC50 is at least 1 nM and the Emax is below 100%. For the same molecule, the Emax in assay [4] was determined as 0%. The “NMDAR2B B: log EC50” value in assay [3] is given as “−”.
Turning to `CC1C(O)C(=O)N(C)C12CN(Cc1ccccc1)C2=O` (single isomer, unassigned) [DN, 2-benzyl-7-hydroxy-5,8-dimethyl-2,5-diazaspiro[3.4]octane-1,6-dione], in assay [1], the concentration giving a half-maximal response (EC50) is below 1 nM. Moreover, in assay [3], the “NMDAR2B B: log EC50” value was “−”.
With `CC1CC(=O)N(c2ccc(F)cc2)C12CN(Cc1ccccc1)C2=O` (centres unmarked) [BY, 2-benzyl-5-(4-fluorophenyl)-8-methyl-2,5-diazaspiro[3.4]octane-1,6-dione], the Emax in assay [1] and in assay [4] was 0% in each case. The “NMDAR2A B: log EC50” value in assay [2] is “−”. In addition, the “NMDAR2B B: log EC50” value in assay [3] was “−”.

As a reminder, the EC50 is the concentration needed to bring the measured effect to its halfway point.

The record behind these values is patent US12084444B2, “Spiro-lactam NMDA modulators and methods of using same” (Tenacia Biotechnology (Hong Kong) Co., Limited, priority 2016, dated 2024).
